Experimental data reported in patent publication US20230031009A1, “TREATMENT FOR CHEMOBRAIN” (YALE UNIVERSITY, priority 2020, published 2023).
Entries after “also recorded” stand apart in the source; their conditions may differ. Blank lines part the entries; values can stand above or below the compound they belong to.

Assays:
Format in all cases: in vivo, mouse
female C57BL/6 mice [1] = assay: Open-field exploration (OFE): locomotor activity and anxiety (thigmotaxis)
Description: Seven-week-old female C57BL/6 mice were purchased from Charles River (Wilmington, Mass., USA) and allowed to habituate to the facility for 7 days, followed by 3 days of handling before the start of the experiment. Mice were randomly assigned into groups, with all groups represented in each cage. […]
Behavioral experiments were adapted from a published protocol (35). Data were analyzed blinded to the experimental conditions. […]
For the OFE task, each mouse was allowed to explore the arena for 10 min. The camera footage was then analyzed using ToxTrac, a published program for the total distance moved and time spent in the peripheral versus the central areas (36). For the DOR task, pairs of 50-mL tubes filled with corn cob bedding were taped cap-down to pre-determined positions in the arena. […] The camera footage was then analyzed for bouts of interactions with the tubes. […] Casual touching of the tubes in passing, or leaning onto the tubes to look around were not counted. The preference index for the displaced object was calculated as 100*(time spent with displaced object)/(total time spent with both displaced and familiar objects). The preference index for the familiar object was similarly calculated. […]

[2] = test system: layers 2/3 cortical pyramidal neurons; assay: Golgi-Cox staining and Sholl analysis of cortical neurons
Description: (§1) Golgi-Cox staining solutions were prepared in advance, according to a published protocol (37). For tissue collection, each mouse was first anesthetized for ˜30 s with […] isoflurane, and then quickly decapitated with scissors. The skull was opened, and the brain was extracted and washed briefly in ice-cold 1× phosphate-buffered saline solution (PBS, AmericanBio). A razor blade was then used to dissect the brain into two hemispheres along the medial longitudinal fissure. One hemisphere was immediately dropped into a 25-mL scintillation vial containing 10 mL of impregnation stock solution. The other hemisphere was rapidly dissected into the cerebellum, hippocampus, frontal cortex, and midbrain, snap-frozen in liquid nitrogen, and then subsequently stored at −80° C. until further use.
Golgi-Cox staining was performed according to a published protocol (37). Briefly, the samples were impregnated with a potassium dichromate and mercuric chloride solution at room temperature for 7 days, followed by immersion in a cryoprotection solution for 4 days, and then sectioned into […] frontal slices with a vibratome. The Golgi Atlas of the Postnatal Mouse Brain was used as the reference to identify the section position of the slices (38). Slices corresponding to frontal sections 10 and 11 in the atlas were selected for imaging the hippocampus and the parietal cortex. Slices corresponding to frontal sections 4 and 5 were selected for imaging the prefrontal cortex. The selected slices were mounted on 0.3% gelatin-coated slides, developed and dehydrated through a series of increasing alcohol concentrations, then with xylene, and finally mounted in Eukitt solution (Sigma Aldrich) for imaging. Z-stack images of different regions, including the dentate gyrus and the frontal cortex, were collected using a Zeiss LSM 710 Duo microscope with 20× and 60× objectives. […] Spines were imaged from basal dendritic branches at least […] away, and apical dendritic branches at least […] away from the cell soma. Scholl analysis, total dendritic length, number of branch points, and spine density were performed with ImageJ using the Simple Neurite Tracer plugin (39). Spine density was quantified as the number of protrusions on dendritic branches per μm dendrite length

female C57BL/6 mice [3] = assay: Displaced object recognition (DOR) task in paclitaxel-induced model of cognitive impairment; conditions: for preference for the displaced object (DOR task): saline and paclitaxel 4×20 mg/kg, 20 mg/kg
Description: (§2) Seven-week-old female C57BL/6 mice were purchased from Charles River (Wilmington, Mass., USA) and allowed to habituate to the facility for 7 days, followed by 3 days of handling before the start of the experiment. Mice were randomly assigned into groups, with all groups represented in each cage. Depending on the treatment group, lithium chloride (Sigma-Aldrich, 12.8 mg/kg in 0.9% saline), chelerythrine chloride (Cayman Chemical, 2 mg/kg in 0.4% DMSO in saline), or the appropriate vehicle was administered intraperitoneally 1 h before injection of vehicle (20% 50:50 Cremophor EL: ethanol, 80% saline) or paclitaxel (Cayman Chemical, 20 mg/kg in 20% 50:50 Cremophor EL: ethanol, 80% saline) to induce cognitive impairment. Each mouse received a total of 4 pairs of injections over 8 days. During and after injections, mice were weighed daily and checked for general health and any sign of pain or distress.
Behavioral experiments were adapted from a published protocol (35). Data were analyzed blinded to the experimental conditions. Open-field exploration (OFE) and displaced object recognition (DOR) tasks were carried out over two consecutive days (FIG. 4.1). The experimental arena was a 35×70×35 cm opaque, white Plexiglas chamber. The arena was covered with ˜1 cm of standard corn cob bedding. […]
For the OFE task, each mouse was allowed to explore the arena for 10 min. The camera footage was then analyzed using ToxTrac, a published program for the total distance moved and time spent in the peripheral versus the central areas (36). For the DOR task, pairs of 50-mL tubes filled with corn cob bedding were taped cap-down to pre-determined positions in the arena. […] The camera footage was then analyzed for bouts of interactions with the tubes. […] Casual touching of the tubes in passing, or leaning onto the tubes to look around were not counted. The preference index for the displaced object was calculated as 100*(time spent with displaced object)/(total time spent with both displaced and familiar objects). The preference index for the familiar object was similarly calculated.

[4] = test system: InsP3R1, NCS1, phospholipase C (PLC-β1); assay: Western blot of brain tissue for other InsP3R pathway proteins; conditions: 30 DPI, paclitaxel
Description: as §1
(§3) Frozen tissues were thawed in RIPA buffer containing protease inhibitor, phenylmethylsulfonyl fluoride (PMSF), and sodium orthovanadate (Santa Cruz), homogenized with a polytron, and then spun down twice at 13000 rpm, 4° C. to remove cell debris. Protein concentration was quantified using Pierce BCA protein assay kit (ThermoFisher Scientific) according to the manufacturer's instruction. Western blots were performed using the NuPAGE system (ThermoFisher Scientific) and PVDF membrane with the Biorad wet transfer system (Bio-Rad Laboratories). Approximately 20 μg total protein was loaded into each lane. […]

[5] = test system: granule cells in the dentate gyrus of the hippocampus; assay: Golgi-Cox staining and Sholl analysis of hippocampal neurons; conditions: 30 DPI
Description: as §1
Golgi-Cox staining was performed according to a published protocol (37). Briefly, the samples were impregnated with a potassium dichromate and mercuric chloride solution at room temperature for 7 days, followed by immersion in a cryoprotection solution for 4 days, and then sectioned into […] frontal slices with a vibratome. The Golgi Atlas of the Postnatal Mouse Brain was used as the reference to identify the section position of the slices (38). […] Spine density was quantified as the number of protrusions on dendritic branches per μm dendrite length

[6] = Body weight during and after paclitaxel injections
Description: as §2

PKCα = assay: Western blot of brain tissue for PKCα
Description: as §1
Frozen tissues were thawed in RIPA buffer containing protease inhibitor, phenylmethylsulfonyl fluoride (PMSF), and sodium orthovanadate (Santa Cruz), homogenized with a polytron, and then spun down twice at 13000 rpm, 4° C. to remove cell debris. Protein concentration was quantified using Pierce BCA protein assay kit (ThermoFisher Scientific) according to the manufacturer's instruction. Western blots were performed using the NuPAGE system (ThermoFisher Scientific) and PVDF membrane with the Biorad wet transfer system (Bio-Rad Laboratories). Approximately 20 μg total protein was loaded into each lane. Information about the antibodies used is included in Supp.

pMARCKS (S152/156) = assay: Western blot of brain tissue for pMARCKS; conditions: cortex, 24 h after paclitaxel injection
Description: as §1, §3

[7] = medial prefrontal cortex, comparison among 4 groups
[8] = saline/paclitaxel vs the other three groups

SMILES: COc1ccc2c(c[n+](C)c3c4cc5c(cc4ccc23)OCO5)c1OC [chelerythrine, chelerythrine chloride]
locomotor activity and anxiety (total distance moved, thigmotaxis) (female C57BL/6 mice [1]; chelerythrine groups vs other groups, 4 DPI and 22 DPI): no differences

total dendritic length ([2]; frontal cortex, saline and paclitaxel vs other groups, 30 DPI): significant reduction
basal dendritic length [2, 7]: no significant differences
basal spine density [2, 7]: no significant differences
apical dendritic length [2, 8]: significant reduction
apical spine density [2, 8]: significant reduction
total dendritic length ([5]; saline and paclitaxel vs other groups): significant reduction
SMILES: CC(=O)O[C@H]1C(=O)[C@@]2(C)[C@H]([C@H](OC(=O)c3ccccc3)[C@]3(O)C[C@H](OC(=O)[C@H](O)[C@@H](NC(=O)c4ccccc4)c4ccccc4)C(C)=C1C3(C)C)[C@]1(OC(C)=O)CO[C@@H]1C[C@@H]2O [paclitaxel]
dendritic complexity (Sholl analysis) ([2]; frontal cortex, saline and paclitaxel, 30 DPI): significant reduction in dendritic complexity
basal dendrites: complexity (Sholl analysis) [2, 7]: no significant differences; also recorded: largely spared; also recorded: not observed in basal dendrites
apical dendrites: dendritic arborization (Sholl analysis) ([2]; saline/paclitaxel vs saline/vehicle, particularly 110-230 μm): reduced dendritic arborization; also recorded: primarily due to differences in apical dendrites
DOR task performance (female C57BL/6 mice [3]; 4×20 mg/kg paclitaxel, after optimization, time not stated): sufficient to impair DOR task performance without additional side effects
preference for the displaced object (DOR task) (female C57BL/6 mice [3]; 5 DPI): no discrimination between the two objects; also recorded: did not discriminate between the objects; also recorded: impaired short-term spatial memory acquisition; also recorded: no preference for either object
preference for the displaced object (DOR task) (female C57BL/6 mice [3]; 23 DPI): did not discriminate between the objects; also recorded: impaired short-term spatial memory acquisition; also recorded: persisted up to 23 DPI
levels of other InsP3R pathway proteins (InsP3R1, NCS1, PLC-β1) [4]: No changes
dendritic complexity (Sholl analysis) ([5]; saline and paclitaxel vs saline/vehicle, particularly 20-90 μm from the soma): reduced dendritic arborization; also recorded: substantial reduction in dendritic complexity
locomotor activity and anxiety (total distance, thigmotaxis) (female C57BL/6 mice [1]; mouse, in vivo, 20 mg/kg): neither impaired locomotor activity nor caused increased anxiety
body weight loss ([6]; after 2 paclitaxel injections, normalized to first day of injection (FIG. S1)): 5-10%
body weight loss ([6]; during injections, normalized to first day of injection (FIG. S3)): approximately 5%
weight loss, comparison among groups ([6]; over the injection duration): No significant differences; also recorded: No significant weight loss
PKCα protein level (PKCα; cortex, 30 DPI (chronic), 4×20 mg/kg paclitaxel): upregulation
PKCα protein level (PKCα; cortex, 24 h after a single 20 mg/kg paclitaxel injection (acute)): upregulation
PKCα protein level (PKCα; hippocampus, 24 h after a single 20 mg/kg paclitaxel injection (acute)): upregulation
pMARCKS (S152/156) level (pMARCKS (S152/156)): trend towards increased pMARCKS
